Reference: ChEMBL document CHEMBL3046792, “Biologically active secondary metabolites of endophytic Pezicula species” (1995)

Assays:
Type in all cases: functional
[1] = test system: [Chlorella] fusca; experiment: Antimicrobial activity against 'Chlorella' fusca at 1 mg by agar diffusion test; conditions: Scenedesmus fuscus; read-out: IZ
[2] = test system: Microbotryum violaceum; experiment: Antimicrobial activity against Microbotryum violaceum at 1 mg by agar diffusion test; conditions: read-out: IZ
[3] = test system: Priestia megaterium; experiment: Antimicrobial activity against Bacillus megaterium at 1 mg by agar diffusion test; conditions: read-out: IZ
[4] = test system: Escherichia coli; experiment: Antimicrobial activity against Escherichia coli at 1 mg by agar diffusion test; conditions: read-out: IZ
[5] = test system: Lepidium sativum; experiment: Herbicidal activity against Lepidium sativum assessed as inhibition of seedlings growth after 2 days
[6] = test system: Mycotypha microspora; experiment: Antimicrobial activity against Mycotypha microspora at 1 mg by agar diffusion test; conditions: read-out: IZ
[7] = test system: Medicago sativa; experiment: Herbicidal activity against Medicago sativa (alfalfa) assessed as inhibition of seedlings growth after 5 days
[8] = test system: Mycotypha microspora; experiment: Antimicrobial activity against Mycotypha microspora at 0.9 mg by agar diffusion test; conditions: read-out: IZ
[9] = test system: Aspergillus pseudoglaucus; experiment: Antimicrobial activity against Eurotium repens at 0.9 mg by agar diffusion test; conditions: read-out: IZ
[10] = test system: [Chlorella] fusca; experiment: Antimicrobial activity against 'Chlorella' fusca at 0.9 mg by agar diffusion test; conditions: Scenedesmus fuscus; read-out: IZ
[11] = test system: Microbotryum violaceum; experiment: Antimicrobial activity against Microbotryum violaceum at 0.9 mg by agar diffusion test; conditions: read-out: IZ
[12] = test system: Priestia megaterium; experiment: Antimicrobial activity against Bacillus megaterium at 0.9 mg by agar diffusion test; conditions: read-out: IZ
[13] = test system: Escherichia coli; experiment: Antimicrobial activity against Escherichia coli at 0.9 mg by agar diffusion test; conditions: read-out: IZ
[14] = test system: Aspergillus pseudoglaucus; experiment: Antimicrobial activity against Eurotium repens at 1 mg by agar diffusion test; conditions: read-out: IZ
[15] = test system: Escherichia coli; experiment: Antimicrobial activity against Escherichia coli at 1.2 mg by agar diffusion test; conditions: read-out: IZ
[16] = test system: [Chlorella] fusca; experiment: Antimicrobial activity against 'Chlorella' fusca at 1.2 mg by agar diffusion test; conditions: Scenedesmus fuscus; read-out: IZ
[17] = test system: Mycotypha microspora; experiment: Antimicrobial activity against Mycotypha microspora at 1.2 mg by agar diffusion test; conditions: read-out: IZ
[18] = test system: Aspergillus pseudoglaucus; experiment: Antimicrobial activity against Eurotium repens at 1.2 mg by agar diffusion test; conditions: read-out: IZ
[19] = test system: Microbotryum violaceum; experiment: Antimicrobial activity against Microbotryum violaceum at 1.2 mg by agar diffusion test; conditions: read-out: IZ
[20] = test system: Priestia megaterium; experiment: Antimicrobial activity against Bacillus megaterium at 1.2 mg by agar diffusion test; conditions: read-out: IZ

Structure (SMILES)	zone of inhibition at 1000 µg/disc [1] [mm]	zone of inhibition at 1000 µg/disc [2] [mm]	zone of inhibition at 1000 µg/disc [3] [mm]	zone of inhibition at 1000 µg/disc [4] [mm]	growth inhibition (GI) [5] [%]	zone of inhibition at 1000 µg/disc [6] [mm]	growth inhibition (GI) [7] [%]	zone of inhibition at 900 µg/disc [8] [mm]	zone of inhibition at 900 µg/disc [9] [mm]	zone of inhibition at 900 µg/disc [10] [mm]	zone of inhibition at 900 µg/disc [11] [mm]	zone of inhibition at 900 µg/disc [12] [mm]	zone of inhibition at 900 µg/disc [13] [mm]	zone of inhibition at 1000 µg/disc [14] [mm]	zone of inhibition at 1200 µg/disc [15] [mm]	zone of inhibition at 1200 µg/disc [16] [mm]	zone of inhibition at 1200 µg/disc [17] [mm]	zone of inhibition at 1200 µg/disc [18] [mm]	zone of inhibition at 1200 µg/disc [19] [mm]	zone of inhibition at 1200 µg/disc [20] [mm]
C=C1C(=O)O[C@H]2C(=O)O[C@H](CC)[C@@H]12 [4-EPI-ETHIOSOLIDE]	3	10	5	5	100	6	100	–	–	–	–	–	–	–	–	–	–	–	–	–
C[C@@H]1Cc2cccc(O)c2C(=O)O1 [(-)-(R)-MELLEIN]	–	–	–	–	100	–	100	0	6	14	8	2	2	–	–	–	–	–	–	–
C/C=C/C1=C(Cl)C(=O)[C@@H](Cl)[C@@]1(O)C(=O)OC [(+)-CRYPTOSPORIPSIN]	0	15	5	3	100	17	100	–	–	–	–	–	–	16	–	–	–	–	–	–
C/C=C(\Cl)C1=CC(=O)[C@@]23C[C@@H]2C(C)(C)O[C@@]3(O)C1=O [(-)-MYCORRHIZIN A]	–	–	–	–	100	–	100	–	–	–	–	–	–	–	3	3	10	14	14	8
